Measurements published in patent US9434711B2 (Janssen Pharmaceutica, NV, priority 2007, dated 2016).
pIC50: −log10 of the molar value. Where two headings read alike, the source gives them in different places.

Target: canine TRPM8 (Canis lupus familiaris, UniProt Q1A7N1)
Test: In Vitro Canine TRPM8 Functional Assay (Ca2+ fluorescence, icilin activation)
Type: cell-based
Details: for pIC50: read-out: IC50; for inhibition at 0.2 µM: read-out: % Inh @ 0.2; for inhibition at 0.5 µM: read-out: % Inh @ 0.5
Description: The functional activity of compounds of the formula (I) was determined by measuring changes in intracellular calcium concentration using a Ca^2+-sensitive fluorescent dye. The changes in fluorescent signal were monitored by a fluorescence plate reader, either a FLIPR™ (Molecular Devices) or FDSS (Hamamatsu).
At 24 hrs prior to assay, HEK293 cells stably expressing canine TRPM8 were seeded in culture medium in black wall, clear-base poly-D-lysine coated 384-well plates (BD Biosciences, NJ, USA) and grown overnight in 5% CO2 at 37° C. On assay day, growth media was removed and cells were loaded with Calcium 3 Dye (Molecular Devices) for 35 min at 37° C., under 5% CO2 and then for 25 min at room temperature and atmosphere. Subsequently, cells were tested for agonist-induced increases in intracellular Ca^2+ levels using FLIPR™ or FDSS. Cells were challenged with a compound of the Formula (I) (at varying concentrations) and intracellular Ca^2+ was measured for 5 min prior to the addition of icilin to all wells to achieve a final concentration that produces approximately an 80% maximal response. EC50 or IC50 values for compounds of the present invention were determined from eight-point dose-response studies. Curves were generated using the average of quadruplicate wells for each data point.

[1] = HEK293 cells stably expressing canine TRPM8, icilin activation, eight-point dose-response
[2] = compound at 0.2 μM, canine TRPM8, icilin activation
[3] = 0.2 μM compound, HEK293 cells stably expressing canine TRPM8, icilin activation
[4] = compound at 0.5 μM, canine TRPM8, icilin activation
[5] = HEK293 cells stably expressing canine TRPM8, icilin activation, average of two or more determinations

canine TRPM8, sequence (Q1A7N1 1-1104): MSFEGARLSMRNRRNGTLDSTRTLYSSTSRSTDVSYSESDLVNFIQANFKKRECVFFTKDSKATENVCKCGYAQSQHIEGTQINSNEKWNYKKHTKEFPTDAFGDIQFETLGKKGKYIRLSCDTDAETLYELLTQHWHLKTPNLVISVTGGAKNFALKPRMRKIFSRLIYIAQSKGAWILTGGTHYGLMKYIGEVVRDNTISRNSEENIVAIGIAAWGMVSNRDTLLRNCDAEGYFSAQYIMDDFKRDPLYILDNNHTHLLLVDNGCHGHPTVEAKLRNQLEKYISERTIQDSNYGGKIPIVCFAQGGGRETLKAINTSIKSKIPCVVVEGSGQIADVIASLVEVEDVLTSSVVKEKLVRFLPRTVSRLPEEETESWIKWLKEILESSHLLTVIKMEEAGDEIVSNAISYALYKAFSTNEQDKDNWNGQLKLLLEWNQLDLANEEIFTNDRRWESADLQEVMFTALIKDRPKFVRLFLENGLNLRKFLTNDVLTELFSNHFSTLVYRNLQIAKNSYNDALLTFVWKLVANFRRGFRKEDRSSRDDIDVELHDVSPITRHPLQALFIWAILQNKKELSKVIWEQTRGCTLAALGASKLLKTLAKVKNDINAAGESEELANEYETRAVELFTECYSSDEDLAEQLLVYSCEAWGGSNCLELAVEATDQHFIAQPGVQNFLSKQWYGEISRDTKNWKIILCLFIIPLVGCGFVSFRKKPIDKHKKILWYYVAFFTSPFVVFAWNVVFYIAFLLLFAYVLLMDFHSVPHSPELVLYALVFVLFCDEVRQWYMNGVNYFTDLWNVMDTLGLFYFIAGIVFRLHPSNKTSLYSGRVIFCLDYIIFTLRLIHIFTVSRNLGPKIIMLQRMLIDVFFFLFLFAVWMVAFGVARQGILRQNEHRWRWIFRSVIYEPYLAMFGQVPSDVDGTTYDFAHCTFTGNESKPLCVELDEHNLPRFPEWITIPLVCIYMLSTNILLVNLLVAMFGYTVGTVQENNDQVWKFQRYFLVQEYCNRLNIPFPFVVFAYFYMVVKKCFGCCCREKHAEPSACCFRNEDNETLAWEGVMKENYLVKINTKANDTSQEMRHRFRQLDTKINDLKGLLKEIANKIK

Molecule	pIC50 [1]	inhibition at 0.2 µM [2]	other results
CCCCNS(=O)(=O)N(CCCC)c1sc2ccccc2c1Br [Compound 849, N-(3-Bromo-benzo[b]thiophen-2-yl)-N,N′-bis-butyl-sulfamide]			inhibition at 0.2 µM [3]: 25%
Cc1c(N(Cc2ccc(F)c(F)c2)S(=O)(=O)c2ccc(O)cc2)sc2ccccc12 [Compound 285, N-(3,4-Difluoro-benzyl)-N-(3-methyl-benzo[b]thiophen-2-yl)-4-hydroxy-benzenesulfonamide]	8.60		inhibition at 0.5 µM [4]: 100%
O=S(=O)(c1ccccc1)N(CC1CCCCC1)c1sc2ccccc2c1Cl [Compound 80, N-(3-Chloro-benzo[b]thiophen-2-yl)-N-(cyclohexylmethyl)-benzenesulfonamide]	7.54		inhibition at 0.5 µM [4]: 98%
CSCCN(c1sc2ccccc2c1Br)S(=O)(=O)c1ccccc1 [Compound 260, N-(3-Bromo-benzo[b]thiophen-2-yl)-N-(2-methylsulfanyl-ethyl)-benzenesulfonamide]	7.30	86%	
Cc1c(N(Cc2ccc(F)c(F)c2)S(=O)(=O)c2cccnc2)sc2ccccc12 [Compound 12, N-(3,4-Difluoro-benzyl)-N-(3-methyl-benzo[b]thiophen-2-yl)-pyridine-3-sulfonamide]	8.22		inhibition at 0.5 µM [4]: 97%
Cc1c(N(Cc2ccc(F)c(C(F)(F)F)c2)S(=O)(=O)c2cccc3c2CN(C(=O)C(F)(F)F)CC3)sc2ccccc12 [Compound 73, N-(4-Fluoro-3-trifluoromethyl-benzyl)-N-(3-methyl-benzo[b]thiophen-2-yl)-2-(2,2,2-trifluoro-acetyl)-1,2,3,4-tetrahydro-isoquinoline-8-sulfonamide]		24%	
COC(=O)c1ccc(S(=O)(=O)N(CCCF)c2cc3ccccc3s2)cc1 [Compound 842, N-(Benzo[b]thiophen-2-yl)-N-(3-fluoro-propyl)-4-carbomethoxy-benzenesulfonamide]			inhibition at 0.2 µM [3]: 63%
CC(=O)c1ccc(S(=O)(=O)N(CCCC(F)(F)F)c2sc3ccccc3c2C)cc1 [Compound 351, N-(3-Methyl-benzo[b]thiophen-2-yl)-N-(4,4,4-trifluoro-butyl)-4-acetyl-benzenesulfonamide]	7.67	97%	
CCS(=O)(=O)N(C[C@@H]1CCC(=O)N1)c1sc2ccccc2c1C [Compound 109, N-(3-Methyl-benzo[b]thiophen-2-yl)-N-(5-oxo-(S)-pyrrolidin-2-ylmethyl)-ethanesulfonamide]		14%	
COC(C)c1c(N(CCCF)S(=O)(=O)c2ccccc2)sc2ccccc12 (stereo not drawn) [Compound 822, N-(3-Fluoro-propyl)-N-[3-(1-methoxy-ethyl)-benzo[b]thiophen-2-yl]-benzenesulfonamide]			inhibition at 0.2 µM [3]: 97%; pIC50 [5]: 7.31
Cc1c(N(CCCCC(F)(F)F)S(=O)(=O)c2ccc(N3CCCCC3)cc2)sc2ccccc12 [Compound 752, N-(3-Methyl-benzo[b]thiophen-2-yl)-N-(5,5,5-trifluoro-pentyl)-4-piperidine-benzenesulfonamide]			% Inh @ 0.2 (μM) [2]: 65%
Cc1c(N(CCCCC(F)(F)F)S(=O)(=O)c2nc3ccccc3[nH]2)sc2ccccc12 [Compound 727, N-(3-Methyl-benzo[b]thiophen-2-yl)-N-(5,5,5,-trifluoro-pentyl)-1H-benzimidazole-2-sulfonamide]			% Inh @ 0.2 (μM) [2]: 16%
CCCCN(c1sc2ccccc2c1C(C)=O)S(=O)(=O)c1ccc(C(=O)O)cc1 [Compound 342, N-(3-Acetyl-benzo[b]thiophen-2-yl)-N-(butyl)-4-carboxy-benzenesulfonamide]	7.89	100%	
COC(=O)c1ccccc1S(=O)(=O)N(Cc1ccc(F)c(C(F)(F)F)c1)c1sc2ccccc2c1Br [Compound 197, N-(3-Bromo-benzo[b]thiophen-2-yl)-N-(4-fluoro-3-trifluoromethyl-benzyl)-2-carbomethoxy-benzenesulfonamide]	8.15	99%	
O=C(O)c1ccc(S(=O)(=O)N(CC2CCC2)c2sc3ccccc3c2Br)cc1 [Compound 437, N-(3-Bromo-benzo[b]thiophen-2-yl)-N-(cyclobutylmethyl)-4-carboxy-benzenesulfonamide]	8.05	92%	
CCS(=O)(=O)N(Cc1ccnc(F)c1)c1cc2ccccc2s1 [Compound 847, N-(Benzo[b]thiophen-2-yl)-N-(2-fluoro-pyridin-4-ylmethyl)-ethane-sulfonamide]			inhibition at 0.2 µM [3]: 33%
N-(3-Bromo-thieno[3,2-b]pyridin-2-yl)-N-(3,4-difluoro-benzyl)-benzenesulfonamide and N-(3-chloro-thieno[3,2-b]pyridin-2-yl)-N-(3,4-difluoro-benzyl)-benzenesulfonamide [Compound 145]	7.85		% Inh @ 0.5 (μM) [4]: 100%
COC(=O)c1cccc(CN(c2cc3ccccc3s2)S(=O)(=O)c2cccnc2)c1 [Compound 379, N-(Benzo[b]thiophen-2-yl)-N-(3-carbomethoxy-benzyl)-pyridin-3-ylsulfonamide]		54%	
CCS(=O)(=O)N(Cc1ccc(F)c(C(F)(F)F)c1)c1sc2ccccc2c1C(C)=O [Compound 205, N-(3-Acetyl-benzo[b]thiophen-2-yl)-N-(4-fluoro-3-trifluoromethyl-benzyl)-ethanesulfonamide]	8.52		inhibition at 0.5 µM [4]: 96%
Cc1c(N(Cc2ccc(F)c(C(F)(F)F)c2)S(=O)(=O)c2ccc(Cl)nc2)sc2ccccc12 [Compound 76, N-(4-Fluoro-3-trifluoromethyl-benzyl)-N-(3-methyl-benzo[b]thiophen-2-yl)-6-chloro-pyridine-3-sulfonamide]	7.68	95%	
CCCCN(c1cc2ccccc2s1)S(=O)(=O)c1ccccc1 [Compound 117, N-(Benzo[b]thiophen-2-yl)-N-(butyl)-benzenesulfonamide]			inhibition at 0.5 µM [4]: 99%
O=S(=O)(c1ccccc1)N(Cc1ccccc1F)c1cc2ccccc2s1 [Compound 50, N-(Benzo[b]thiophen-2-yl)-N-(2-fluoro-benzyl)-benzenesulfonamide]	7.18		inhibition at 0.5 µM [4]: 99%
CS(=O)(=O)CS(=O)(=O)N(Cc1ccc(F)c(F)c1)c1cc2ccccc2s1 [Compound 133, N-(Benzo[b]thiophen-2-yl)-N-(3,4-difluoro-benzyl)-C-methanesulfonyl-methanesulfonamide]	7.22		inhibition at 0.5 µM [4]: 97%
CCS(=O)(=O)N(Cc1ccnc(F)c1)c1sc2ccccc2c1C [Compound 829, N-(2-Fluoro-pyridin-4-ylmethyl)-N-(3-methyl-benzo[b]thiophen-2-yl)-ethanesulfonamide]			inhibition at 0.2 µM [3]: 100%; pIC50 [5]: 7.64

Now from value to molecule, other results behind:

pIC50 [1]	inhibition at 0.2 µM [2]	Molecule	other results
7.64	99%	O=S(=O)(CC(F)(F)F)N(Cc1ccc(F)c(C(F)(F)F)c1)c1sc2ccccc2c1Br [Compound 702, N-(3-Bromo-benzo[b]thiophen-2-yl)-N-(4-fluoro-3-trifluoromethyl-benzyl)-2,2,2-trifluoro-ethanesulfonamide]	
	17%	CC1=C(N(CCCCC(F)(F)F)S(=O)(=O)c2ccc(C(=O)O)cc2)S(=O)(=O)c2ccccc21 [Compound 633, N-(3-Methyl-1,1-dioxo-benzo[b]thiophen-2-yl)-N-(5,5,5-trifluoro-pentyl)-4-carboxy-benzenesulfonamide]	
7.89	101%	Cc1c(N(CCCC(F)(F)F)S(=O)(=O)c2ccccc2)sc2ccccc12 [Compound 616, N-(3-Methyl-benzo[b]thiophen-2-yl)-N-(4,4,4-trifluoro-butyl)-benzenesulfonamide]	
	42%	O=C(Nc1ccc(S(=O)(=O)N(CCC2CC2)c2sc3ccccc3c2Cl)cc1)C(F)(F)F [Cpd 694, N-(3-Chloro-benzo[b]thiophen-2-yl)-N-(2-cyclopropyl-ethyl)-4-trifluoroacetamido-benzenesulfonamide]	
7.93	102%	Cc1c(N(Cc2ccc(OC(F)(F)F)cc2)S(=O)(=O)c2ccc(N(C)C)nc2)sc2ccccc12 [Compound 789]	
7.05	94.4%	Cc1c(N(CCCC(F)(F)F)S(=O)(=O)c2cccc(C#N)c2)sc2ccccc12 [Compound 551, N-(3-Methyl-benzo[b]thiophen-2-yl)-N-(4,4,4-trifluoro-butyl)-3-cyano-benzenesulfonamide]	
	62%	CNC1=C(N(Cc2ccc(F)c(C(F)(F)F)c2)S(=O)(=O)c2ccccc2)S(=O)(=O)c2ccccc21 [Compound 648, N-(4-Fluoro-3-trifluoromethyl-benzyl)-N-(3-methylamino-1,1-dioxo-1H-1λ^6-benzo[b]thiophen-2-yl)-benzenesulfonamide]	
	39%	O=S(=O)(c1ccc(Br)cc1)N(CCC(F)(F)F)c1cc2ccccc2s1 [Compound 476, N-(Benzo[b]thiophen-2-yl)-4-(bromo)-N-(3,3,3-trifluoro-propyl)-benzenesulfonamide]	
